Earlier results on four compounds are cited in US20240156891A1, “EXTRACTS OF SALVIA MILTIORRHIZA AND/OR PONCIRUS TRIFOLIATA FOR INHIBITING BODY WEIGHT GAIN” (Taipei Medical University, priority 2022, published 2024).

The conditions of this data set: typical values of solvents.
On to `CC(C)=O` [acetone], for which the “log Kow” value is −0.24.

As for `CCOC(C)=O` [ethyl acetate], the “log Kow” value is reported as 0.66~0.73. As for `CO` [methanol], the “log Kow” value was −0.82~−0.66. `CCCCCC` [n-hexane]: the “log Kow” value was 3.17~3.94.
